Target: T1, cIAP1 (Homo sapiens, UniProt Q13490)
T1 construct: induce autoubiquitination and degradation of cIAP1 in MDA-MB-231 breast cancer cells; endogenous in cells; host or cells: MDA-MB-231
Experiment: Western blot analysis of cIAP1 autoubiquitination and proteasomal degradation in MDA-MB-231 cells
Type: cell-based
Details: 10 µM, 15 and 120 min
Description: Prior to Western blot sample collection, cells were harvested by trypsinization, counted and seeded on 50 mm Petri dishes. After overnight incubation, the culture medium was replaced with fresh medium containing the tested compounds at the target concentration ranges with 0.1% (v/v) DMSO as a control. Next, the cells were washed with PBS and lysed with ice-cold RIPA buffer containing protease and phosphatase inhibitors (Sigma-Aldrich, Poznań, Poland), and after debris removal (4 °C, 15 min, 16,000 × g), the lysates were used in further experiments.
MDA-MB-231 cell lysates (25 µg of total protein/lane) were resolved by SDS-PAGE (4–12%, Tris-glycine, reducing conditions) and transferred onto a nitrocellulose membrane (0.45 µm pore size; Thermo Scientific, Gdańsk, Poland) using the semi-dry blotting system (Cleaver Scientific, Rugby, UK). The membrane was washed with 10 mM PBS (pH 7.4; 5 min, r.t.) and blocked with 5% skim milk in PBS supplemented with 0.05% Tween-20 (PBST) for 1 h at r.t. Subsequently, the membrane was washed with PBST (3 times for 5 min, r.t.) and incubated with rabbit anti-cIAP1 monoclonal IgG (1:1,000 in 0.5% skim milk in PBST; 4 °C, overnight; Cell Signaling Technology, Warszawa, Poland, Cat# 7065, D5G9). […]

T1 sequence (Q13490 whole entry): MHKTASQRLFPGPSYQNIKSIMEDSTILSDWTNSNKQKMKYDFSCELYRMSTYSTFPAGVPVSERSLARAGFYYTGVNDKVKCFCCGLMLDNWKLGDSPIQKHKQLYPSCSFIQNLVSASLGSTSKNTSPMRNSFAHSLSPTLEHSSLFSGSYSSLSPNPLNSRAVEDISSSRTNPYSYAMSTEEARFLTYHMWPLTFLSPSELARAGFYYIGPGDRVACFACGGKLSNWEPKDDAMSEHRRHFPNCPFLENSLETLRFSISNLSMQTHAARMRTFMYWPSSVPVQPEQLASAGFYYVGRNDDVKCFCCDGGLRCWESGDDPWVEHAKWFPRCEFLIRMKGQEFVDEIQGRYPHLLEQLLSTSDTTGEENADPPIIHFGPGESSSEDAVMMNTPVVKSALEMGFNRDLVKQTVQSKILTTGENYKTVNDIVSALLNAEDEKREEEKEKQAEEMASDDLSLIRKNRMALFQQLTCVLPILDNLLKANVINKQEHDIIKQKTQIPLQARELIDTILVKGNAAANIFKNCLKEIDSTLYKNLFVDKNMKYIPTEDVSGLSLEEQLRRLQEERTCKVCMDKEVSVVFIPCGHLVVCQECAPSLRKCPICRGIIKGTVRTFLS

SMILES | induction of autoubiquitination and degradation of cIAP1
CN[C@@H](C)C(=O)N[C@H](C(=O)N1CCC[C@H]1C(=O)NC(Cc1ccccc1)P(=O)(Oc1ccccc1)Oc1ccccc1)C(C)C (stereo partly drawn) [Compound 41, diphenyl (1-((S)-1-((S)-3-methyl-2-((S)-2-(methylamino)propanamido)butanoyl)pyrrolidine-2-carboxamido)-2-phenylethyl)phosphonate] | greatest ability to induce cIAP1 degradation
CN[C@@H](C)C(=O)N[C@H](C(=O)N1CCC[C@H]1C(=O)NC(Cc1ccccc1)P(=O)(Oc1ccccc1)Oc1ccccc1)C1CCCCC1 (stereo partly drawn) [Compound 42, diphenyl (1-((S)-1-((S)-2-cyclohexyl-2-((S)-2-(methylamino)propanamido)acetyl)pyrrolidine-2-carboxamido)-2-phenylethyl)phosphonate] | greatest ability to induce cIAP1 degradation

Reference: PMC7497679, “Structure-based design, synthesis, and evaluation of the biological activity of novel phosphoroorganic small molecule IAP antagonists” (Investigational New Drugs, 2020)
